From patent US20220031901A1, “FRAGRANCE COMPOSITION” (Takasago International Corporation, priority 2020, published 2022)

What was measured:
[1] = molecular target: T1, olfactory receptor OR2L3 (Homo sapiens, UniProt Q8NG85); assay: Effect of suppressing the response of OR2L3 to unpleasant odor (luciferase reporter gene assay); type: cell-based; conditions: for Effect of suppressing the response of OR2L3 to indole: test substance mixed with indole, FIGS. 9 to 11; for Effect of suppressing the response of OR2L3 to skatole: test substance mixed with skatole, ratio of Fold Increase value, FIGS. 6 to 8
T1 construct: N-terminal 20 amino acid residues of bovine rhodopsin (Rho tag); expressed in transfected cells; host or cells: HEK293T
T1 sequence (Q8NG85 1-312): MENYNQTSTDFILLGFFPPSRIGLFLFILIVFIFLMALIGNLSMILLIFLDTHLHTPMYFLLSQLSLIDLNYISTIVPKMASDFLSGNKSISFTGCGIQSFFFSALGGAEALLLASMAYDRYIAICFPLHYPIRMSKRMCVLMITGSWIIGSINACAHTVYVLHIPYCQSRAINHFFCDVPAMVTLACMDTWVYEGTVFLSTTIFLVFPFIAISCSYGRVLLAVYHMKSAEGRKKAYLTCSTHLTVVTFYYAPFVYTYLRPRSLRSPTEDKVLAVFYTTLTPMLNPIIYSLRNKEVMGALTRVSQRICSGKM
Experimental: (§1) A human olfactory receptor gene was obtained by cloning according to the PCR method using Human Genomic DNA: Female (Promega) based on the sequence information registered in GenBank. The N-terminal 20 amino acid residues of bovine rhodopsin were incorporated into a pME18S vector, and the obtained human olfactory receptor gene was further incorporated downstream thereof, thereby obtaining a human olfactory receptor gene expression vector.
(§2) 0.05 μg of the human olfactory receptor gene expression vector, 0.01 μg of an RTP1S vector, 0.01 μg of a firefly luciferase vector pGL4.29 containing a cAMP-responsive sequence promoter (Promega), and 0.005 μg of a Renilla luciferase vector pGL4.74 containing a thymidine kinase promoter (Promega) were dissolved in 10 μL of Opti-MEM I (gibco) to obtain a gene solution (for one well). 100 μL of HEK293T cells were seeded in each well of a 96-well plate (Biocoat manufactured by Corning) so as to reach confluency after 24 hours. According to the directions for use of Lipofectamine 3000, by the lipofection method, the gene solution was added to each well to perform gene transfer to cells, and culturing was performed under 5% carbon dioxide atmosphere at 37° C. for 24 hours.
(§3) After removing the culture medium, 50 μL of CD293 medium (gibco) (20 μM L-glutamine added) including measured concentration of an aroma compound as a sample was added to each well, and stimulation was performed for 3 hours. After that, the luciferase activity was measured according to the directions for use of Dual-Luciferase Reporter Assay System (Promega). The response strength of the olfactory receptor was expressed by the Fold Increase value, which is obtained by dividing the luciferase activity generated by stimulation of the aroma compound by the luciferase activity generated in the test system not including the aroma compound.
With respect to Group A, the effect of suppressing the response of OR2L3 that strongly responded to unpleasant odors was measured by means of luciferase reporter gene assay. In luciferase reporter gene assay, skatole and Guava coeur (registered trademark) were used by being mixed with a sample. The Fold Increase value in the test in which Guava coeur was not mixed was regarded as 1, and the ratio of the Fold Increase value in the test in which Guava coeur was mixed was obtained.
Guava coeur in the evaluation of the effect of suppressing the response of OR2L3 was replaced by Dextramber (registered trademark), and the test was conducted in the same manner. […] Similarly, Guava coeur was replaced by Hindinol (registered trademark) and the test was conducted.
Regarding the unpleasant odor in the evaluation of the effect of suppressing the response of OR2L3, skatole was replaced by indole, and the test was conducted in the same manner.
In the evaluation of the effect of suppressing the response of OR2L3, the test was further conducted using combinations in which Guava coeur was replaced by another material of Group A and the skatole as the unpleasant odor was replaced by α-terpineol, 4-terpineol or p-methylacetophenone.

[2] = Sensory evaluation of unpleasant odor suppression ability of Group A; parameters: species or system human; conditions: for Indole strength / Skatole strength: average of 20 panelists, scale 0 (not smelled) to 10 (very strongly), unpleasant odor alone = 8, 1 hour; for Indole strength: 10 μL indole diluted 100-fold + 1 μL test substance; for Skatole strength: 10 μL skatole diluted 100-fold + 1 μL test substance; for Effect of suppressing the unpleasant odors (skatole, indole): sensory evaluation, result in words
Experimental: The unpleasant odor suppression ability of test substances having activity to inhibit receptor action was confirmed by sensory evaluation. A cotton ball on which 10 μL of skatole or indole diluted 100-fold with triethyl citrate as an unpleasant odor and 1 μL of a test substance were dropped was put into a plastic bottle (OZO-40 manufactured by Takemoto Yohki Co., Ltd.). The bottle was allowed to stand at room temperature for 1 hour to sufficiently volatilize odor molecules therein. The sensory evaluation test was conducted by a panel consisting of 20 persons, who made evaluation as follows: the odor strength in the case where the unpleasant odor was dropped solely was rated as 8, and the unpleasant odor strength in the case where the test substance was mixed was rated as from 0 (the unpleasant odor is not smelled) to 10 (the unpleasant odor is smelled very strongly). The average value was calculated from obtained numerical values.

[3] = Sensory evaluation of ability to suppress model fecal odor by fragrance compositions; parameters: species or system human; conditions: substance blended in the fragrance composition (floral-fruity base); result in words
Experimental: Fragrance compositions of Fragrance 1 to Fragrance 41 were prepared according to the formulations in Tables 2-6 below. DPG in the tables means dipropylene glycol. […] Note that the way of dividing the group and the ratio in the group are optional and not limited by Table 7. The floral-fruity base in Tables 2-6 was prepared according to Table 8.
Regarding these fragrance compositions, the ability to suppress the unpleasant odor was confirmed by means of sensory evaluation. As the unpleasant odor, a model fecal odor containing skatole, indole, butyric acid, p-cresol and dimethyl trisulfide (Lin et al., Environ. Sci. Technol., 2013, 47(14), pp. 7876-7882) was diluted 100-fold, and 10 μL thereof was dropped on a cotton ball, and as a test substance, 1 μL of one of Fragrance 1 to Fragrance 41 was dropped on the cotton ball. Then the cotton ball was put into a plastic bottle (OZO-40 manufactured by Takemoto Yohki Co., Ltd.). The bottle was allowed to stand at room temperature for 1 hour to sufficiently volatilize odor molecules therein. The sensory evaluation test was conducted by a panel consisting of 20 persons, who made evaluation as follows: the unpleasantness in the case where the unpleasant odor was dropped solely was rated as −3, and the unpleasantness in the case where the test substance was mixed was rated as from −4 (extremely unpleasant) to +4 (extremely pleasant). The average value was calculated from obtained numerical values.

[4] = molecular target: T1, olfactory receptor OR2L3; assay: Response of olfactory receptor OR2L3 to unpleasant odor-causing substance (luciferase reporter gene assay); type: cell-based; conditions: various concentrations, stimulation 3 hours, HEK293T cells expressing OR2L3; FIGS. 1 to 5
Experimental: as §1, §2, §3
Responses of the olfactory receptor OR2L3 to skatole, indole, α-terpineol, 4-terpineol or p-methylacetophenone as a typical example of the unpleasant odor-causing substance were measured with various concentrations by means of luciferase reporter gene assay. […] Meanwhile, in the Mock test (using cells in which OR2L3 was not expressed), no response was shown. That is, it was shown that OR2L3 specifically responds to the respective unpleasant odor-causing substances.

Row | Molecule | Effect of suppressing the response of OR2L3 to indole [1] | Effect of suppressing the response of OR2L3 to skatole [1] | Indole strength [2] | Skatole strength [2] | Effect of suppressing the unpleasant odors (skatole, indole) [2] | Suppression of the unpleasantness of the model fecal odor [3] | Response of the olfactory receptor OR2L3 (Fold Increase value) [4]
1 | CCOC(=O)C(C)C(C)S (stereo not shown) [Guava coeur, ethyl 3-mercapto-2-methylbutyrate] | concentration-dependently reducing the response | concentration-dependently reducing the response | 3.3 | 3.0 | suppress the unpleasant odors | suppress the unpleasantness | 
2 | CCCCCCOC(=O)c1ccccc1O [Hexyl salicylate, hexyl salicylate, reference compound] |  | did not suppress | 6.7 | 6.9 |  |  | 
3 | CC1=CCC(O)(C(C)C)CC1 (stereo not shown) [Fragrance 4-terpineol, 4-terpineol] |  |  |  |  |  |  | concentration-dependent responses
4 | methyl fenchol [Humus Ether] |  | suppresses |  |  |  | suppressed the unpleasantness | 
5 | CC(=O)c1ccc(C)cc1 [p-methylacetophenone] |  |  |  |  |  |  | concentration-dependent responses
6 | CC(c1ccccc1)C1CC1C(C)(C)O (stereo not shown) [Pamplefix, dimethyl-2-(1-phenylethyl)cyclopropylmethanol] |  |  | 2.4 | 2.5 | suppress the unpleasant odors | suppress the unpleasantness | 
7 | CC(C)(C)C1CCC(O)CC1 (stereo not shown) [4-t-butylcyclohexanol, reference compound] |  | did not suppress | 6.0 | 6.3 |  |  | 
8 | O=C1CCCC=CCCCCCCCCCC1 [Ambretone, 5-cyclohexadecenone] |  |  | 3.6 | 4.2 | suppress the unpleasant odors | suppress the unpleasantness | 
9 | Cc1c[nH]c2ccccc12 [skatole] |  |  |  |  |  |  | concentration-dependent responses
10 | CC1CCC(C(C)(C)S)C(=O)C1 (stereo not shown) [Ringonol, p-mentha-8-thiol-3-one] |  |  | 3.7 | 3.9 | suppress the unpleasant odors | suppress the unpleasantness | 
11 | CC1=CCC(C(C)(C)O)CC1 (stereo not drawn) [α-terpineol] |  |  |  |  |  |  | concentration-dependent responses
12 | c1ccc2[nH]ccc2c1 [indole] |  |  |  |  |  |  | concentration-dependent responses
13 | CCCC(O)CCC1C(C)CCCC1(C)C (stereo not shown) [Dextramber, 1-(2,2,6-trimethylcyclohexyl)hexan-3-ol] | concentration-dependently reducing the response | concentration-dependently reducing the response | 3.9 | 4.0 | suppress the unpleasant odors | suppress the unpleasantness | 
14 | CC(=CCC1CC=C(C)C1(C)C)CO (stereo not shown) [Hindinol, 2-methyl-4-(2,2,3-trimethyl-3-cyclopentenyl)-2-buten-1-ol] | concentration-dependently reducing the response | concentration-dependently reducing the response | 4.1 | 3.6 | suppress the unpleasant odors | suppress the unpleasantness | 
